Experimental data reported in US7622492B2, “Pyrazolones as inhibitors of 11β-hydroxysteroid dehydrogenase” (Hoffmann-La Roche Inc., priority 2005, dated 2009).

Columns and labels:
human 11betaHSD1 = target: T1, human 11betaHSD1 (Homo sapiens, UniProt P28845); test: Cell-based assay: HEK-293 cells stably transfected with human 11betaHSD1, cortisol by competitive ELISA; conditions: HEK-293 cells stably transfected with full-length human 11betaHSD1 cDNA, cortisone 100 nM, 1 hour
T1 construct: HEK-293 cells stably transfected with full-length human 11betaHSD1 cDNA; expressed in transfected cells; host or cells: HEK-293
Description: The following day, serially diluted 11bHSD1 inhibitor compounds dissolved in DMSO were added to plating media supplemented with BSA (2 mg/ml final). The final DMSO concentration was 1%. Media was aspirated from plates, and compounds in media were added to each well. The plates were incubated at 37° C. for 1 hour to allow for cellular uptake of compounds. 10 μL of substrate (cortisone) was then added to each well (100 nM final concentration) and incubated for 1 hour at 37° C. Plates were then transferred to ice and 80 μL of media transferred to a 96-well plate and stored at −30° C.
Plates were washed with PBS, 0.1% Tween-20, then washed with PBS alone. Plates were blocked with Blocking Buffer (Tropix Cat# AI075) for 2 hours at room temperature. The plates were then washed as previously described. Assay samples were thawed, diluted 1:4 in DMEM, 2 mg/mL BSA, 1% DMSO, and 24 μL was transferred to wells of a pre-coated 384-well plate, as well as varying amounts of cortisol standard. To each well, 12 μL of cortisol-conjugate and 12 μL of anti-cortisol EIA antibody were added and incubated 2 hrs at room temperature on a orbital plate shaker. The wells were then emptied by inversion, then washed three times with 100 μL of Wash Buffer (Tropix), and then 2 times with 100 μL of Assay Buffer (Tropix). 60 μL of CDP-STAR (Tropix) was added to each well and incubated 10 minutes at room temperature. Chemiluminescence was measured using a Victor V Reader (Perkin Elmer). Cortisol in each sample was interpolated from a standard curve generated with known amounts of cortisol. IC50 values were calculated using the curve fitting software XLFit3 (IDBS).

human HSD1 = human HSD1 (Homo sapiens, UniProt P28845); test: In vitro inhibition of purified human HSD1 (time-resolved fluorescence cortisol detection); format: biochemical; conditions: purified human HSD1, cortisone substrate, 30 min; read-out: hHSD1 IC50
Description: Purified human HSD1 was diluted in 50 mM Tris-HCl, 100 mM NaCl, 0.1 mg/ml BSA, 0.02% Lubrol, 20 mM MgCl2, 10 mM glucose 6-phosphate, 0.4 mM NADPH, 60 U/ml glucose 6-phosphate dehydrogenase to a concentration of 1.5 μg/ml (Enzyme Solution). […] Testing compounds (40 μM) in DMSO was diluted 3 fold in series in DMSO and further diluted 20 fold in Substrate Solution. Enzyme Solution (10 μl/well) was added into 384 well microtiter plates followed by diluted compound solutions (10 μl/well) and mixed well. Samples were then incubated at […] for 30 min. EDTA/biotin-cortisol solution (10 μl/well) in 28 mM EDTA, […], 50 mM Tris-HCl, 100 mM NaCl was then added followed by 5 ul/well of anti-cortisol antibody (3.2 μg/ml) in 50 mM Tris-HCl, 100 mM NaCl, 0.1 mg/ml BSA and the solution was incubated at 37 degrees for 30 min. […] Signals were quantitated by reading time-resolved fluorescence on a Victor 5 reader (Wallac).

Chain of human HSD1 (P28845 whole entry): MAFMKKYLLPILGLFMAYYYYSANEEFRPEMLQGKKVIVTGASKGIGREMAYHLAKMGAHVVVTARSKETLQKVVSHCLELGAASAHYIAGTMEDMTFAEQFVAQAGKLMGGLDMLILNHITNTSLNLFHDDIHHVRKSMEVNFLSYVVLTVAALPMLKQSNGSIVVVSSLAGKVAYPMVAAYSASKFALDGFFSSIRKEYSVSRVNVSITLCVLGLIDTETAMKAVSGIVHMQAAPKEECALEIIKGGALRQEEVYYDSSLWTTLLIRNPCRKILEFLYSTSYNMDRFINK
T1 sequence (P28845 whole entry): as above

SMILES | IC50 (human 11betaHSD1) [nM] | IC50 (human HSD1) [nM]
Cn1c2c(c(=O)n1-c1ccccc1F)[C@H]1CC[C@]2(C)C1(C)C [Example 12, (4S,7R)-2-(2-Fluoro-phenyl)-1,7,8,8-tetramethyl-1,2,4,5,6,7-hexahydro-4,7-methano-indazol-3-one] | 19 | 291
Cn1c2c(c(=O)n1-c1ccc(F)cc1)[C@H]1CC[C@]2(C)C1(C)C [Example 17, (4S,7R)-2-(4-Fluoro-phenyl)-1,7,8,8-tetramethyl-1,2,4,5,6,7-hexahydro-4,7-methano-indazol-3-one] | 110 | 1720
Cc1cccc(-n2c(=O)c3c(n2C)[C@]2(C)CC[C@H]3C2(C)C)c1C [Example 21, (4S,7R)-2-(2,3-Dimethyl-phenyl)-1,7,8,8-tetramethyl-1,2,4,5,6,7-hexahydro-4,7-methano-indazol-3-one] | 19 | 10
Cn1c2c(c(=O)n1Cc1cccc(F)c1)[C@H]1CC[C@]2(C)C1(C)C [Example 32, (4S,7R)-2-(3-Fluoro-benzyl)-1,7,8,8-tetramethyl-1,2,4,5,6,7-hexahydro-4,7-methano-indazol-3-one] | 60 | 23
Cn1c2c(c(=O)n1Cc1ccc(F)cc1C(F)(F)F)[C@H]1CC[C@]2(C)C1(C)C [Example 37, (4S,7R)-2-(4-Fluoro-2-trifluoromethyl-benzyl)-1,7,8,8-tetramethyl-1,2,4,5,6,7-hexahydro-4,7-methano-indazol-3-one] | 27 | –
Cn1c2c(c(=O)n1Cc1ccc(C(N)=O)cc1)[C@H]1CC[C@]2(C)C1(C)C [Example 39, (4S,7R)-4-(1,7,8,8-Tetramethyl-3-oxo-1,3,4,5,6,7-hexahydro-4,7-methano-indazol-2-ylmethyl)-benzamide] | 243 | 101
CC1(C)[C@@H]2CC[C@@]1(C)c1c2c(=O)n(-c2ccccc2)n1CCc1ccccc1 [Example 66, (4S,7R)-7,8,8-Trimethyl-1-phenethyl-2-phenyl-1,2,4,5,6,7-hexahydro-4,7-methano-indazol-3-one] | 19 | –
CC(C)c1cccc(-n2c(=O)c3c(n2C)[C@]2(C)CC[C@H]3C2(C)C)c1 [Example 75, (4S,7R)-2-(3-Isopropyl-phenyl)-1,7,8,8-tetramethyl-1,2,4,5,6,7-hexahydro-4,7-methano-indazol-3-one] | 17 | –
CC(C)(C)c1ccc(Cn2c3c(c(=O)n2-c2ccc(F)cc2F)[C@H]2CC[C@]3(C)C2(C)C)cc1 [Example 98, (4S,7R)-1-(4-tert-Butyl-benzyl)-2-(2,4-difluoro-phenyl)-7,8,8-trimethyl-1,2,4,5,6,7-hexahydro-4,7-methano-indazol-3-one] | 28 | –
COc1ccc(Cn2c3c(c(=O)n2-c2ccc(F)cc2F)[C@H]2CC[C@]3(C)C2(C)C)cc1 [Example 99, (4S,7R)-2-(2,4-Difluoro-phenyl)-1-(4-methoxy-benzyl)-7,8,8-trimethyl-1,2,4,5,6,7-hexahydro-4,7-methano-indazol-3-one] | 14 | –
CC1(C)[C@@H]2CC[C@@]1(C)c1c2c(=O)n(-c2ccc(F)cc2F)n1Cc1ccc(C(F)(F)F)cc1 [Example 103, (4S,7R)-2-(2,4-Difluoro-phenyl)-7,8,8-trimethyl-1-(4-trifluoromethyl-benzyl)-1,2,4,5,6,7-hexahydro-4,7-methano-indazol-3-one] | 11 | –
COc1ncccc1Cn1c2c(c(=O)n1-c1ccc(F)cc1F)[C@@H]1CC[C@@]2(C)C1(C)C [Example 113, (4R,7S)-2-(2,4-Difluoro-phenyl)-1-(2-methoxy-pyridin-3-ylmethyl)-7,8,8-trimethyl-1,2,4,5,6,7-hexahydro-4,7-methano-indazol-3-one] | 36 | –
CC1(C)[C@H]2CC[C@]1(C)c1c2c(=O)n(-c2ccc(F)cc2Cl)n1Cc1ccccc1 [Example 120, (4R,7S)-1-Benzyl-2-(2-chloro-4-fluoro-phenyl)-7,8,8-trimethyl-1,2,4,5,6,7-hexahydro-4,7-methano-indazol-3-one] | 18 | –
CC1(C)[C@H]2CC[C@]1(C)c1c2c(=O)n(-c2ccc(F)cc2Cl)n1Cc1ccc(F)cc1F [Example 122, (4R,7S)-2-(2-Chloro-4-fluoro-phenyl)-1-(2,4-difluoro-benzyl)-7,8,8-trimethyl-1,2,4,5,6,7-hexahydro-4,7-methano-indazol-3-one] | 21 | –
CC1(C)[C@H]2CC[C@]1(C)c1c2c(=O)n(-c2ccc3ccccc3c2)n1Cc1ccccc1 [Example 145, (4R,7S)-1-Benzyl-7,8,8-trimethyl-2-naphthalen-2-yl-1,2,4,5,6,7-hexahydro-4,7-methano-indazol-3-one] | 21 | –
Cc1nc(Cn2c(=O)c3c(n2Cc2ccccc2)[C@@]2(C)CC[C@@H]3C2(C)C)cs1 [Example 150, (4R,7S)-1-Benzyl-7,8,8-trimethyl-2-(2-methyl-thiazol-4-ylmethyl)-1,2,4,5,6,7-hexahydro-4,7-methano-indazol-3-one] | 208 | –

Next, values leading:

IC50 (human 11betaHSD1) [nM] | IC50 (human HSD1) [nM] | SMILES
134 | 472 | COc1cccc(Cn2c(=O)c3c(n2C)[C@]2(C)CC[C@H]3C2(C)C)c1 [Example 34, (4S,7R)-2-(3-Methoxy-benzyl)-1,7,8,8-tetramethyl-1,2,4,5,6,7-hexahydro-4,7-methano-indazol-3-one]
25 | 59 | Cn1c2c(c(=O)n1-c1cccc(-c3ccccc3)c1)[C@H]1CC[C@]2(C)C1(C)C [Example 43, (4S,7R)-2-Biphenyl-3-yl-1,7,8,8-tetramethyl-1,2,4,5,6,7-hexahydro-4,7-methano-indazol-3-one]
20 | – | Cn1c2c(c(=O)n1-c1ccc(O)cc1)[C@H]1CC[C@]2(C)C1(C)C [Example 76, (4S,7R)-2-(4-Hydroxy-phenyl)-1,7,8,8-tetramethyl-1,2,4,5,6,7-hexahydro-4,7-methano-indazol-3-one]
14 | – | CC(C)CCn1c2c(c(=O)n1-c1ccc(F)cc1F)[C@H]1CC[C@]2(C)C1(C)C [Example 87, (4S,7R)-2-(2,4-Difluoro-phenyl)-7,8,8-trimethyl-1-(3-methyl-butyl)-1,2,4,5,6,7-hexahydro-4,7-methano-indazol-3-one]
9 | – | CC1(C)[C@@H]2CC[C@@]1(C)c1c2c(=O)n(-c2ccc(F)cc2Cl)n1Cc1ccc(F)cc1F [Example 123, (4S,7R)-2-(2-Chloro-4-fluoro-phenyl)-1-(2,4-difluoro-benzyl)-7,8,8-trimethyl-1,2,4,5,6,7-hexahydro-4,7-methano-indazol-3-one]
6 | – | Cn1c2c(c(=O)n1-c1cccc(Cl)c1Cl)[C@H]1CC[C@]2(C)C1(C)C [Example 126, (4S,7R)-2-(2,3-Dichloro-phenyl)-1,7,8,8-tetramethyl-1,2,4,5,6,7-hexahydro-4,7-methano-indazol-3-one]
210 | – | Cn1c2c(c(=O)n1-c1cc(C(F)(F)F)ccc1F)[C@H]1CC[C@]2(C)C1(C)C [Example 132, (4S,7R)-2-(2-Fluoro-5-trifluoromethyl-phenyl)-1,7,8,8-tetramethyl-1,2,4,5,6,7-hexahydro-4,7-methano-indazol-3-one]
21 | – | Cn1c2c(c(=O)n1-c1cc(F)ccc1C(F)(F)F)[C@H]1CC[C@]2(C)C1(C)C [Example 133, (4S,7R)-2-(5-Fluoro-2-trifluoromethyl-phenyl)-1,7,8,8-tetramethyl-1,2,4,5,6,7-hexahydro-4,7-methano-indazol-3-one]
4 | – | Cc1cccc(-n2c(=O)c3c(n2Cc2ccccc2)[C@@]2(C)CC[C@@H]3C2(C)C)c1C [Example 137, (4R,7S)-1-Benzyl-2-(2,3-dimethyl-phenyl)-7,8,8-trimethyl-1,2,4,5,6,7-hexahydro-4,7-methano-indazol-3-one]
24 | – | Cn1c2c(c(=O)n1-c1ccc3ccccc3c1)[C@H]1CC[C@]2(C)C1(C)C [Example 144, (4S,7R)-1,7,8,8-Tetramethyl-2-naphthalen-2-yl-1,2,4,5,6,7-hexahydro-4,7-methano-indazol-3-one]
